Laboratory results from PubChem BioAssay (NCI).
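Protocol summary: plate cells (96-well), add compound at 5 concentrations, incubate 48 h, interpolate endpoints linearly. TGI: concentration producing complete growth inhibition.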

Tests used:
Assay in all cases: growth of human tumour cells (NCI), 48 h
SK-MEL-2 melanoma = test system: SK-MEL-2 melanoma
786-0 renal = test system: 786-0 renal
HL-60(TB) leukemia = test system: HL-60(TB) leukemia
SK-MEL-28 melanoma = test system: SK-MEL-28 melanoma
MDA-MB-435 = test system: MDA-MB-435
HCT-116 colon = test system: HCT-116 colon
BT-549 breast = test system: BT-549 breast
M14 melanoma = test system: M14 melanoma
NCI-H522 lung = test system: NCI-H522 lung
RPMI-8226 leukemia = test system: RPMI-8226 leukemia
HOP-62 NSCLC = test system: HOP-62 NSCLC
CAKI-1 renal = test system: CAKI-1 renal
UACC-62 melanoma = test system: UACC-62 melanoma
PC-3 prostate = test system: PC-3 prostate
HOP-92 NSCLC = test system: HOP-92 NSCLC
KM12 colon = test system: KM12 colon
MALME-3M melanoma = test system: MALME-3M melanoma
HT29 colon = test system: HT29 colon
OVCAR-4 ovarian = test system: OVCAR-4 ovarian
SK-OV-3 ovarian = test system: SK-OV-3 ovarian
SF-268 CNS = test system: SF-268 CNS
OVCAR-5 ovarian = test system: OVCAR-5 ovarian
EKVX NSCLC = test system: EKVX NSCLC
IGROV1 ovarian = test system: IGROV1 ovarian
SN12C renal = test system: SN12C renal
NCI-H226 lung = test system: NCI-H226 lung
U251 CNS = test system: U251 CNS
HS 578T breast = test system: HS 578T breast
T-47D breast = test system: T-47D breast
CCRF-CEM leukemia = test system: CCRF-CEM leukemia
SF-295 CNS = test system: SF-295 CNS
A549 NSCLC = test system: A549 NSCLC
ACHN renal = test system: ACHN renal
HCT-15 colon = test system: HCT-15 colon
OVCAR-8 ovarian = test system: OVCAR-8 ovarian
OVCAR-3 ovarian = test system: OVCAR-3 ovarian
SW-620 colon = test system: SW-620 colon
DU-145 prostate = test system: DU-145 prostate
SNB-75 CNS = test system: SNB-75 CNS
NCI-H23 lung = test system: NCI-H23 lung
HCC-2998 colon = test system: HCC-2998 colon
NCI/ADR-RES ovarian = test system: NCI/ADR-RES ovarian
RXF 393 renal = test system: RXF 393 renal
TK-10 renal = test system: TK-10 renal
LOX IMVI melanoma = test system: LOX IMVI melanoma
MDA-N = test system: MDA-N
MDA-MB-231 breast = test system: MDA-MB-231 breast
NCI-H460 lung = test system: NCI-H460 lung
UACC-257 melanoma = test system: UACC-257 melanoma
SK-MEL-5 melanoma = test system: SK-MEL-5 melanoma
SNB-19 CNS = test system: SNB-19 CNS
SF-539 CNS = test system: SF-539 CNS
A498 renal = test system: A498 renal
COLO 205 colon = test system: COLO 205 colon

Measured: TGI

O=C1C=CC(=O)c2c(O)c(N[C@@H](Cc3ccccc3)C(=O)OCc3ccccc3)c(Cl)c(O)c21
7.11 µM: LOX IMVI melanoma
8.86 µM: SF-539 CNS
7.15 µM: OVCAR-3 ovarian
8.18 µM: SK-MEL-5 melanoma
4.42 µM: HCT-116 colon
8.43 µM: MDA-MB-231 breast
5.62 µM: NCI/ADR-RES ovarian
6.71 µM: COLO 205 colon
> 10 µM: all other assays above
